Assays:
[1] = biological target: T1, human recombinant CBL-b (human Biotin CBL-b recombinant protein a.a. 39-426) (Homo sapiens, UniProt Q13191); assay: Biochemical assay for CBL-b inhibition (ligand displacement TR-FRET); format: binding; conditions: 50 nM CBL-b, 0.3 μM Bodipy FL-Probe, read-out: IC50 (CBL-b inhibition, group)
T1 construct: human Biotin CBL-b recombinant protein a.a; 39-426; Biotin (biotinylated); made in house
Procedure, shortened: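 Ligand-displacement TR-FRET: 0.3 μM Bodipy FL probe competes with compound for 50 nM biotin-CBL-b (aa 39-426) after a 60 min RT compound pre-incubation; terbium-streptavidin detection, 60 min each step. Dose-response sigmoidal fitting gave IC50 and % maximum inhibition.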

[2] = test system: NFAT signaling pathway in Jurkat NFAT reporter cells; assay: Jurkat NFAT reporter assay; format: cell-based; conditions: Homo sapiens, 30 min with compound, then soluble anti-human CD3/CD28 antibody for 6 hours, luciferase readout, read-out: EC50 (Group)
Procedure, shortened: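 Results are expressed as fold change relative to stimulated, inhibitor-free cells. Stimulation was 6 h with soluble anti-human CD3/CD28 antibody after a 30-min exposure of 1×10^5 NFAT-RE luciferase Jurkat reporter cells per well to the Cbl-b inhibitor; signal read by Bio-Glo bioluminescence.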

T1 sequence (Q13191 39-426): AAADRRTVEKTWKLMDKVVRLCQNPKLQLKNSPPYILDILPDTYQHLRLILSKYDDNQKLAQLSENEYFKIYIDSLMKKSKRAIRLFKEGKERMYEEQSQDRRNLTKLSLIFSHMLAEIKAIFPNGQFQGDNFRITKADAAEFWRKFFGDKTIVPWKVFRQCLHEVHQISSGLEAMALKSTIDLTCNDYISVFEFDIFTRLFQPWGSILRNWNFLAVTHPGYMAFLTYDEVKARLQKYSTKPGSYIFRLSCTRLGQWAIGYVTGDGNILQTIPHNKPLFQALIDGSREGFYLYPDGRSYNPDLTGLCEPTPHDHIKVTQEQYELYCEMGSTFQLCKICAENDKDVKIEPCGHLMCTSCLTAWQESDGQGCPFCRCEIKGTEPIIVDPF

Row | SMILES | IC50 [1] [nM] | EC50 [2] [nM]
1 | Cn1cnnc1CC1(c2ccc3c(c2)C(=O)N(c2cc(CN4CCC5(CC5)C4)cc(Cl)n2)C3)COC1 [Compound 62, 2-(4-((5-Azaspiro[2.4]heptan-5-yl)methyl)-6-chloropyridin-2-yl)-6-(3-((4-methyl-4H-1,2,4-triazol-3-yl)methyl)oxetan-3-yl)isoindolin-1-one] | 80 to 300 | 300 to 1000
2 | Cn1cnnc1CC1(c2ccc3c(c2)C(=O)N(c2cc(CNC4CCCC4)cc(Cl)n2)C3)COC1 [Compound 201, 2-(6-Chloro-4-((cyclopentylamino)methyl)pyridin-2-yl)-6-(3-((4-methyl-4H-1,2,4-triazol-3-yl)methyl)oxetan-3-yl)isoindolin-1-one] | < 80 | < 300
3 | Cc1cc(CNCC2CC(F)(F)C2)cc(N2Cc3ccc(-c4ccc(Cl)cc4-c4nncn4C)cc3C2=O)n1 [Compound 279, 6-(4-Chloro-2-(4-methyl-4H-1,2,4-triazol-3-yl)phenyl)-2-(4-((((3,3-difluoro-cyclobutyl)methyl)amino)methyl)-6-methylpyridin-2-yl)isoindolin-1-one] | < 80 | < 300
4 | Cc1cc(C(C)NCC2CC(F)(F)C2)cc(N2Cc3ccc(-c4ccc(Cl)cc4-c4nncn4C)cc3C2=O)n1 (stereo not shown) [Compound 281, 6-(4-Chloro-2-(4-methyl-4H-1,2,4-triazol-3-yl)phenyl)-2-(4-(1-(((3,3-difluoro-cyclobutyl)methyl)amino)ethyl)-6-methylpyridin-2-yl)isoindolin-1-one] | < 80 | < 300
5 | CC(C)c1cc(CN2CCC[C@H](C)C2)cc(N2Cc3ccc(C4(Cc5nncn5C)COC4)cc3C2=O)c1 [Compound 15, (S)-2-(3-Isopropyl-5-((3-methylpiperidin-1-yl)methyl)phenyl)-6-(3-((4-methyl-4H-1,2,4-triazol-3-yl)methyl)oxetan-3-yl)isoindolin-1-one] | 80 to 300 | 300 to 1000
6 | C[C@H]1CCN(Cc2cc(Cl)nc(N3Cc4ccc(C5(Cc6nncn6C)COC5)cc4C3=O)c2)C1 [Compound 67, (S)-2-(6-Chloro-4-((3-methylpyrrolidin-1-yl)methyl)pyridin-2-yl)-6-(3-((4-methyl-4H-1,2,4-triazol-3-yl)methyl)oxetan-3-yl)isoindolin-1-one] | 80 to 300 | 300 to 1000
7 | C[C@H]1CCCN(Cc2cc(Cl)nc(N3Cc4ccc(-c5ccc(C#N)cc5-c5nncn5C)cc4C3=O)c2)C1 [Compound 112, (S)-4-(2-(6-Chloro-4-((3-methylpiperidin-1-yl)methyl)pyridin-2-yl)-3-oxoiso-indolin-5-yl)-3-(4-methyl-4H-1,2,4-triazol-3-yl)benzonitrile] | < 80 | < 300
8 | Cc1cc(CNCC2CC2)cc(N2Cc3ccc(-c4ncc(Cl)cc4-c4nncn4C)cc3C2=O)n1 [Compound 263, 6-(5-Chloro-3-(4-methyl-4H-1,2,4-triazol-3-yl)pyridin-2-yl)-2-(4-(((cyclo-propylmethyl)amino)methyl)-6-methylpyridin-2-yl)isoindolin-1-one] | < 80 | 1000 to 10000
9 | Cn1cnnc1CC1(c2ccc3c(c2)C(=O)N(c2cc(CNCC4CCCO4)cc(Cl)n2)C3)COC1 (stereo not shown) [Compound 188, 2-(6-Chloro-4-((((tetrahydrofuran-2-yl)methyl)amino)methyl)pyridin-2-yl)-6-(3-((4-methyl-4H-1,2,4-triazol-3-yl)methyl)oxetan-3-yl)isoindolin-1-one] | < 80 | 300 to 1000
10 | Cc1cc(CNCC(C)C)cc(N2Cc3ccc(-c4ccc(F)cc4-c4nncn4C)cc3C2=O)n1 [Compound 305] | < 80 | < 300
11 | Cc1cc(CNCC2CC2)cc(N2Cc3ccc(-c4ccc(F)cc4-c4nncn4C)cc3C2=O)n1 [Compound 127, 2-(4-(((Cyclopropylmethyl)amino)methyl)-6-methylpyridin-2-yl)-6-(4-fluoro-2-(4-methyl-4H-1,2,4-triazol-3-yl)phenyl)isoindolin-1-one] | < 80 | < 300
12 | C[C@H]1CCCN(Cc2cc(Cl)nc(N3Cc4ccc([C@@H](C)Cc5nncn5C)cc4C3=O)c2)C1 (single isomer, unassigned) [Compound 91] | < 80 | < 300
13 | Cc1cc(CNCC2CC2)cc(N2Cc3ccc(C4(Cc5nncn5C)COC4)cc3C2=O)n1 [Compound 147, 2-(4-(((Cyclopropylmethyl)amino)methyl)-6-methylpyridin-2-yl)-6-(3-((4-methyl-4H-1,2,4-triazol-3-yl)methyl)oxetan-3-yl)isoindolin-1-one] | < 80 | 300 to 1000
14 | Cc1nc(N2Cc3ccc(C4(Cc5nncn5C)COC4)cc3C2=O)cc(CNCC2CC2)c1F [Compound 198] | < 80 | 1000 to 10000
15 | C[C@@H]1C[C@H](C)CN(Cc2cc(N3Cc4ccc([C@H](C)Cc5nncn5C)cc4C3=O)nc(C(F)(F)F)c2)C1 (single isomer, unassigned) [Compound 87] | 80 to 300 | 300 to 1000
16 | Cn1cnnc1CC1(c2ccc3c(c2)C(=O)N(c2cc(CN4CCC5(CC4)CC5)cc(C(F)(F)F)n2)C3)COC1 [Compound 44, 2-(4-((6-Azaspiro[2.5]octan-6-yl)methyl)-6-(trifluoromethyl)pyridin-2-yl)-6-(3-((4-methyl-4H-1,2,4-triazol-3-yl)methyl)oxetan-3-yl)isoindolin-1-one] | 80 to 300 | 300 to 1000
17 | Cn1cnnc1CC1(c2ccc3c(c2)C(=O)N(c2cc(CN4CC[C@H](F)C4)cc(C(F)(F)F)n2)C3)COC1 [Compound 61, (S)-2-(4-((3-Fluoropyrrolidin-1-yl)methyl)-6-(trifluoromethyl)pyridin-2-yl)-6-(3-((4-methyl-4H-1,2,4-triazol-3-yl)methyl)oxetan-3-yl)isoindolin-1-one] | 300 to 5000 | 1000 to 10000
18 | C[C@H]1CCCN(Cc2cc(N3CCCCC3)cc(N3Cc4ccc(C5(Cc6nncn6C)COC5)cc4C3=O)c2)C1 [Compound 14, (S)-6-(3-((4-Methyl-4H-1,2,4-triazol-3-yl)methyl)oxetan-3-yl)-2-(3-((3-methyl-piperidin-1-yl)methyl)-5-(piperidin-1-yl)phenyl)isoindolin-1-one] | 300 to 5000 | 1000 to 10000
19 | Cc1cc(CNCCC2CC2)cc(N2Cc3ccc(-c4ccc(F)cc4-c4nncn4C)cc3C2=O)n1 [Compound 307, 2-(4-(((2-Cyclopropylethyl)amino)methyl)-6-methylpyridin-2-yl)-6-(4-fluoro-2-(4-methyl-4H-1,2,4-triazol-3-yl)phenyl)isoindolin-1-one] | < 80 | < 300

The next lines start with the values.

Row | IC50 [1] [nM] | EC50 [2] [nM] | SMILES
20 | < 80 | 300 to 1000 | Cc1cc(CNCCC(F)(F)F)cc(N2Cc3ccc(C4(Cc5nncn5C)COC4)cc3C2=O)c1 [Compound 19, 6-(3-((4-Methyl-4H-1,2,4-triazol-3-yl)methyl)oxetan-3-yl)-2-(3-methyl-5-(((3,3,3-trifluoropropyl)amino)methyl)phenyl)isoindolin-1-one]
21 | < 80 | 1000 to 10000 | Cc1cc(CNCC2(CO)CCC2)cc(N2Cc3ccc(-c4ccc(F)cc4-c4nncn4C)cc3C2=O)n1 [Compound 308]
22 | < 80 | 1000 to 10000 | Cc1cc(CNCC2(O)CC2)cc(N2Cc3ccc(-c4ccc(F)cc4-c4nncn4C)cc3C2=O)n1 [Compound 311]
23 | < 80 | < 300 | Cn1cnnc1CC1(c2ccc3c(c2)C(=O)N(c2cc(CNCCC(F)(F)F)cc(Cl)n2)C3)CCC1 [Compound 151, 2-(6-Chloro-4-(((3,3,3-trifluoropropyl)amino)methyl)pyridin-2-yl)-6-(1-((4-methyl-4H-1,2,4-triazol-3-yl)methyl)cyclobutyl)isoindolin-1-one]
24 | < 80 | 300 to 1000 | Cn1cnnc1CC1(c2ccc3c(c2)C(=O)N(c2cc(CNCC4CC4(F)F)cc(Cl)n2)C3)COC1 (stereo not shown) [Compound 175, 2-(6-Chloro-4-((((2,2-difluorocyclopropyl)methyl)amino)methyl)pyridin-2-yl)-6-(3-((4-methyl-4H-1,2,4-triazol-3-yl)methyl)oxetan-3-yl)isoindolin-1-one]
25 | < 80 | 1000 to 10000 | COc1ccc(-c2ccc3c(c2)C(=O)N(c2cc(CNCC4CC4)cc(C)n2)C3)c(-c2nncn2C)c1 [Compound 273, 2-(4-(((Cyclopropylmethyl)amino)methyl)-6-methylpyridin-2-yl)-6-(4-methoxy-2-(4-methyl-4H-1,2,4-triazol-3-yl)phenyl)isoindolin-1-one]
26 | < 80 | 1000 to 10000 | Cn1cnnc1CC1(c2ccc3c(c2)C(=O)N(c2cc(CNCC(C)(C)O)cc(Cl)n2)C3)COC1 [Compound 187]
27 | < 80 | < 300 | C[C@H](NC1CCCC1)c1cc(Cl)nc(N2Cc3ccc(C4(Cc5nncn5C)COC4)cc3C2=O)c1 (single isomer, unassigned) [Compound 231]
28 | < 80 | < 300 | Cn1cnnc1CC1(c2ccc3c(c2)C(=O)N(c2cc(CNCC4CCC4)cc(Cl)n2)C3)CC(C#N)C1 (stereo not shown) [Compound 182, 3-(2-(6-Chloro-4-(((cyclobutylmethyl)amino)methyl)pyridin-2-yl)-3-oxoiso-indolin-5-yl)-3-((4-methyl-4H-1,2,4-triazol-3-yl)methyl)cyclobutane-1-carbonitrile]
29 | < 80 | < 300 | Cn1cnnc1CC1(c2ccc3c(c2)C(=O)N(c2cc(CNCC4CC(F)(F)C4)cc(Cl)n2)C3)COC1 [Compound 169, 2-(6-Chloro-4-((((3,3-difluorocyclobutyl)methyl)amino)methyl)pyridin-2-yl)-6-(3-((4-methyl-4H-1,2,4-triazol-3-yl)methyl)oxetan-3-yl)isoindolin-1-one]

— patent US20260226073A1 (AURIGENE ONCOLOGY LIMITED, priority 2023, published 2026)
